Measured values taken from US10688200B2, “Urea-based prostate specific membrane antigen (PSMA) inhibitors for imaging and therapy” (Five Eleven Pharma Inc., priority 2015, dated 2020).

Legend:
[1] = Biodistribution of radiotracers in normal mice; format: in vivo, mouse; conditions: for Biodistribution: Blood / Biodistribution: Bone / Biodistribution: Brain / Biodistribution: Heart / Biodistribution: Kidney / Biodistribution: Liver / Biodistribution: Lung / Biodistribution: Muscle / Biodistribution: Pancreas / Biodistribution: Skin / Biodistribution: Spleen: normal male mice
Procedure: Normal CD-1 male mice were injected via the tail vein with 35 μCi of [^68Ga] radiotracers (0.2 nmole of ligand). […] All organs were removed and blood was also collected. Each organ was weighed, and the tissue radioactivity was measured with an automated gamma counter (Wizard, Perkin Elmer). The % ID/g was calculated by comparison with samples of a standard dilution of the initial dose. All measurements were corrected for decay.

PSMA = biological target: T1, PSMA (Homo sapiens, UniProt Q04609); assay: In vitro binding signals of 68Ga labeled ligands in LNCaP tumor homogenates; conditions: Ga-68 radiolabeled ligands
T1 construct: 100 μL of freshly harvested PSMA cells; endogenous in cells; host or cells: 'PSMA cells' in the method
T1 sequence (Q04609 whole entry): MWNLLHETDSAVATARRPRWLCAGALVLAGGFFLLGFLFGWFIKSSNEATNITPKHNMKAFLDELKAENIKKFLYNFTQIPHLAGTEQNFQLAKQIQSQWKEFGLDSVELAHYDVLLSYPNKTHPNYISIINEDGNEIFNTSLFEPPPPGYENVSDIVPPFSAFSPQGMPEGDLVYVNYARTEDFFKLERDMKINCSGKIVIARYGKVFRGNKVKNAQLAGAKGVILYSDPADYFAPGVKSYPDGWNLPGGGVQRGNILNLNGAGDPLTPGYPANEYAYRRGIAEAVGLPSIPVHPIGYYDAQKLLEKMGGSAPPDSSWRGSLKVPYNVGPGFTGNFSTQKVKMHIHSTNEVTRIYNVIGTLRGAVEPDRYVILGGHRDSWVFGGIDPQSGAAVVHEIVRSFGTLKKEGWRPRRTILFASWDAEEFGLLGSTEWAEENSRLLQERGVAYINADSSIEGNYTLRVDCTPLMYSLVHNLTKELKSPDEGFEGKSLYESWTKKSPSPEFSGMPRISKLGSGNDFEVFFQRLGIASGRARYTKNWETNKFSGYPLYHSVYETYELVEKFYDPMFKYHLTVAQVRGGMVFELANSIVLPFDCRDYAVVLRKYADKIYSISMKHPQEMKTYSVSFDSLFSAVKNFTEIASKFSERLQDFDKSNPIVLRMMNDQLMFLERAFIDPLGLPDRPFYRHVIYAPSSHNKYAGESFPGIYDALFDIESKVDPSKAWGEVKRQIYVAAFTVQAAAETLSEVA

Compound: O=C(O)CC[C@H](NC(=O)N[C@@H](CCCCNC(=O)CCCCCNC(=O)CCc1ccc2c(c1)C[N+]13CC[N+]45CC(=O)[O][68Ga-3]14([O]C(=O)C3)([O]2)[O]c1ccc(CCC(=O)NCCNC(=O)CN2CCN(CC(=O)O)CCN(CC(=O)O)CCN(CC(=O)O)CC2)cc1C5)C(=O)O)C(=O)O (some centres unmarked) [[^68Ga]1g]
- Biodistribution: Blood ([1]; 2 min): 7.62 ± 0.08 % dose/g
- Biodistribution: Bone ([1]; 2 min): 1.51 ± 0.17 % dose/g
- Biodistribution: Brain ([1]; 2 min): 0.29 ± 0.06 % dose/g
- Biodistribution: Heart ([1]; 2 min): 2.82 ± 0.21 % dose/g
- Biodistribution: Kidney ([1]; 2 min): 50.9 ± 5.81 % dose/g
- Biodistribution: Liver ([1]; 2 min): 2.00 ± 0.05 % dose/g
- Biodistribution: Lung ([1]; 2 min): 5.19 ± 0.19 % dose/g
- Biodistribution: Muscle ([1]; 2 min): 1.72 ± 0.18 % dose/g
- Biodistribution: Pancreas ([1]; 2 min): 1.73 ± 0.09 % dose/g
- Biodistribution: Skin ([1]; 2 min): 2.00 ± 0.21 % dose/g
- Biodistribution: Spleen ([1]; 2 min): 5.06 ± 0.78 % dose/g
- Biodistribution: Blood ([1]; 30 min): 0.68 ± 0.09 % dose/g
- Biodistribution: Bone ([1]; 30 min): 0.22 ± 0.11 % dose/g
- Biodistribution: Brain ([1]; 30 min): 0.06 ± 0.03 % dose/g
- Biodistribution: Heart ([1]; 30 min): 0.49 ± 0.15 % dose/g
- Biodistribution: Kidney ([1]; 30 min): 110 ± 13.4 % dose/g
- Biodistribution: Liver ([1]; 30 min): 0.47 ± 0.06 % dose/g
- Biodistribution: Lung ([1]; 30 min): 2.13 ± 0.39 % dose/g
- Biodistribution: Muscle ([1]; 30 min): 0.48 ± 0.04 % dose/g
- Biodistribution: Pancreas ([1]; 30 min): 0.73 ± 0.19 % dose/g
- Biodistribution: Skin ([1]; 30 min): 1.13 ± 0.25 % dose/g
- Biodistribution: Spleen ([1]; 30 min): 5.28 ± 2.18 % dose/g
- Biodistribution: Blood ([1]; 60 min): 0.41 ± 0.02 % dose/g
- Biodistribution: Bone ([1]; 60 min): 0.28 ± 0.03 % dose/g
- Biodistribution: Brain ([1]; 60 min): 0.03 ± 0.01 % dose/g
- Biodistribution: Heart ([1]; 60 min): 0.27 ± 0.03 % dose/g
- Biodistribution: Kidney ([1]; 60 min): 116 ± 23.2 % dose/g
- Biodistribution: Liver ([1]; 60 min): 0.43 ± 0.05 % dose/g
- Biodistribution: Lung ([1]; 60 min): 1.33 ± 0.06 % dose/g
- Biodistribution: Muscle ([1]; 60 min): 0.30 ± 0.08 % dose/g
- Biodistribution: Pancreas ([1]; 60 min): 0.48 ± 0.05 % dose/g
- Biodistribution: Skin ([1]; 60 min): 0.92 ± 0.11 % dose/g
- Biodistribution: Spleen ([1]; 60 min): 4.77 ± 2.37 % dose/g
- Biodistribution: Blood ([1]; 120 min): 0.25 ± 0.04 % dose/g
- Biodistribution: Bone ([1]; 120 min): 0.28 ± 0.03 % dose/g
- Biodistribution: Brain ([1]; 120 min): 0.02 ± 0.00 % dose/g
- Biodistribution: Heart ([1]; 120 min): 0.16 ± 0.01 % dose/g
- Biodistribution: Kidney ([1]; 120 min): 95.0 ± 11.2 % dose/g
- Biodistribution: Liver ([1]; 120 min): 0.30 ± 0.01 % dose/g
- Biodistribution: Lung ([1]; 120 min): 0.85 ± 0.16 % dose/g
- Biodistribution: Muscle ([1]; 120 min): 0.23 ± 0.04 % dose/g
- Biodistribution: Pancreas ([1]; 120 min): 0.39 ± 0.04 % dose/g
- Biodistribution: Skin ([1]; 120 min): 0.66 ± 0.10 % dose/g
- Biodistribution: Spleen ([1]; 120 min): 2.48 ± 0.91 % dose/g

Compound: O=C(O)CC[C@H](NC(=O)N[C@@H](CCCCNC(=O)CCCCCNC(=O)CCc1ccc(O)c(CN(CCN(CC(=O)O)Cc2cc(CCC(=O)NCCNC(=O)CN3CCN4CCN5CCN(CC3)CC(=O)[O][177Lu]([O]C(=O)C4)[O]C(=O)C5)ccc2O)CC(=O)O)c1)C(=O)O)C(=O)O [[^177Lu]1g]
- Biodistribution: Blood ([1]; 0.5 hr): 0.64 ± 0.22 % dose/g
- Biodistribution: Bone ([1]; 0.5 hr): 0.22 ± 0.05 % dose/g
- Biodistribution: Brain ([1]; 0.5 hr): 0.03 ± 0.01 % dose/g
- Biodistribution: Heart ([1]; 0.5 hr): 0.28 ± 0.09 % dose/g
- Biodistribution: Kidney ([1]; 0.5 hr): 40.6 ± 10.5 % dose/g
- Biodistribution: Liver ([1]; 0.5 hr): 0.23 ± 0.02 % dose/g
- Biodistribution: Lung ([1]; 0.5 hr): 0.80 ± 0.38 % dose/g
- Biodistribution: Muscle ([1]; 0.5 hr): 0.27 ± 0.07 % dose/g
- Biodistribution: Pancreas ([1]; 0.5 hr): 0.40 ± 0.07 % dose/g
- Biodistribution: Skin ([1]; 0.5 hr): 0.56 ± 0.12 % dose/g
- Biodistribution: Spleen ([1]; 0.5 hr): 0.78 ± 0.37 % dose/g
- Biodistribution: Blood ([1]; 1 hr): 0.15 ± 0.05 % dose/g
- Biodistribution: Bone ([1]; 1 hr): 0.11 ± 0.01 % dose/g
- Biodistribution: Brain ([1]; 1 hr): 0.01 ± 0.00 % dose/g
- Biodistribution: Heart ([1]; 1 hr): 0.14 ± 0.01 % dose/g
- Biodistribution: Kidney ([1]; 1 hr): 30.3 ± 3.50 % dose/g
- Biodistribution: Liver ([1]; 1 hr): 0.12 ± 0.02 % dose/g
- Biodistribution: Lung ([1]; 1 hr): 0.45 ± 0.13 % dose/g
- Biodistribution: Muscle ([1]; 1 hr): 0.11 ± 0.03 % dose/g
- Biodistribution: Pancreas ([1]; 1 hr): 0.32 ± 0.183 % dose/g
- Biodistribution: Skin ([1]; 1 hr): 0.21 ± 0.04 % dose/g
- Biodistribution: Spleen ([1]; 1 hr): 0.92 ± 0.24 % dose/g
- Biodistribution: Blood ([1]; 6 hr): 0.01 ± 0.00 % dose/g
- Biodistribution: Bone ([1]; 6 hr): 0.12 ± 0.01 % dose/g
- Biodistribution: Brain ([1]; 6 hr): 0.01 ± 0.00 % dose/g
- Biodistribution: Heart ([1]; 6 hr): 0.02 ± 0.01 % dose/g
- Biodistribution: Kidney ([1]; 6 hr): 17.8 ± 4.07 % dose/g
- Biodistribution: Liver ([1]; 6 hr): 0.07 ± 0.01 % dose/g
- Biodistribution: Lung ([1]; 6 hr): 0.11 ± 0.00 % dose/g
- Biodistribution: Muscle ([1]; 6 hr): 0.03 ± 0.00 % dose/g
- Biodistribution: Pancreas ([1]; 6 hr): 0.08 ± 0.03 % dose/g
- Biodistribution: Skin ([1]; 6 hr): 0.06 ± 0.00 % dose/g
- Biodistribution: Spleen ([1]; 6 hr): 0.28 ± 0.08 % dose/g
- Biodistribution: Blood ([1]; 24 hr): 0.01 ± 0.00 % dose/g
- Biodistribution: Bone ([1]; 24 hr): 0.12 ± 0.01 % dose/g
- Biodistribution: Brain ([1]; 24 hr): 0.01 ± 0.00 % dose/g
- Biodistribution: Heart ([1]; 24 hr): 0.01 ± 0.00 % dose/g
- Biodistribution: Kidney ([1]; 24 hr): 4.02 ± 1.34 % dose/g
- Biodistribution: Liver ([1]; 24 hr): 0.03 ± 0.00 % dose/g
- Biodistribution: Lung ([1]; 24 hr): 0.03 ± 0.01 % dose/g
- Biodistribution: Muscle ([1]; 24 hr): 0.01 ± 0.00 % dose/g
- Biodistribution: Pancreas ([1]; 24 hr): 0.02 ± 0.01 % dose/g
- Biodistribution: Skin ([1]; 24 hr): 0.04 ± 0.01 % dose/g
- Biodistribution: Spleen ([1]; 24 hr): 0.04 ± 0.00 % dose/g
- Initial uptakes in the kidneys, in words ([1]; normal mice): comparable to that of [^68Ga]1g

Compound: O=C(O)CCc1ccc(O)c(CN(CCN(CC(=O)O)Cc2cc(CCC(=O)NCC(=O)N[C@@H](Cc3ccc(OCC(=O)N[C@@H](Cc4ccccc4)C(=O)NCCCC[C@H](NC(=O)N[C@@H](CCC(=O)O)C(=O)O)C(=O)O)cc3)C(=O)O)ccc2O)CC(=O)O)c1 [Compound 5b, (4S,11S,15S)-4-Benzyl-1-(4-((S)-2-carboxy-2-(2-(3-(3-(((2-((5-(2-carboxyethyl)-2-hydroxybenzyl)(carboxymethyl)amino)ethyl)(carboxymethyl)amino)methyl)-4-hydroxyphenyl)propanamido)acetamido)ethyl)phenoxy)-2,5,13-trioxo-3,6,12,14-tetraazaheptadecane-11,15,17-tricarboxylic acid.]
- Specific binding (SB) SB = TB − NSB (PSMA): 10.54
- Total binding (TB) (PSMA; 37° C. 60 min): 10.73
- Nonspecific binding (NSB) (PSMA; with 1a (PSMA11) 10 μM): 0.18
